The values below come from patent US11008308B2, “Quinazolinones as PARP14 inhibitors” (Ribon Therapeutics Inc., priority 2017, dated 2021).

Experiment [1] addresses catalytic domain of human PARP14 (Homo sapiens (Human), UniProt Q460N5). Briefly: Enzymatic assay for inhibition of PARP14 (DELFIA, auto-modification by biotin-NAD). Type of experiment: biochemical. The conditions noted are these: 50 nM PARP14, 3 μM biotin-NAD. On the procedure:
An N-terminal His-TEV fusion tag was used to purify the protein from cell lysates. The His-TEV tag was left on the protein for use in the enzymatic assay.
Enzymatic inhibition of PARP14 was measured using a dissociation-enhanced lanthanide fluorescence immunoassay (DELFIA) monitoring the auto-modification of PARP14 by biotinylated nicotinamide adenine dinucleotide (biotin-NAD). 1 μL of a dose response curve of each test compound was spotted in 384-well nickel-coated white microplates (Thermo) using a Mosquito (TTP Labtech). Reactions were performed in a 50 μL volume by adding 40 μL of PARP14 in assay buffer (20 mM HEPES pH==8, 100 mM NaCl, 0.1% bovine serum albumin, 2 mM DTT and 0.002%0 Tween20), incubating with test compound at 25° C. for 30 min, then adding 10 μL of biotin-NAD (Biolog). The final concentrations of PARP14 and biotin-NAD are 50 nM and 3 μM, respectively. Reactions proceeded at 25° C. for 3 h, then were quenched with 5 μL of 10 mM unmodified nicotinamide adenine dinucleotide (Sigma-Aldrich). […] After a 5 min incubation the plate was read on an Envision platereader equipped with a LANCE/DELFIA top mirror (Perkin Elmer) using excitation of 340 nm and emission of 615 nm to measure the amount of Europium present in each well, informing on the amount of biotin-NAD that was transferred in the automodification reaction. […]

For a further experiment, the system named is 4T1 cells. Briefly: Tumor growth in 4T1 murine syngeneic model. The conditions noted are these: 4T1 orthotopic, female BALB/c mice, 500 mg/kg PO BID, study terminated on D20. Type of experiment: in vivo, mouse (BALB/c). The text has this:
FIGS. 3A and 4A illustrate that a PARP14 inhibitor (Example 235) reduces tumor growth in the murine syngeneic models (A) 4T1 and (B) LL/2. For the 4T1 study (FIGS. 3A and 3B), female BALB/c mice were inoculated orthotopically in the mammary fat pad with 1×10^5 4T1 cells (ATCC, CRL-2539™) for tumor development. Seven days after tumor inoculation, 16 mice with tumor size ranging from 41-78 mm^3 (average tumor size 56 mm^3) were selected and assigned into 2 groups using stratified randomization with 8 mice in each group based upon their tumor volumes. The treatments were started from the next day post randomization (defined as randomization day DO) and were treated with vehicle (0.5% methylcellulose+0.2% Tween 80), or the compound of Example 235 (500 mg/kg PO BID*21 days). The tumor sizes were measured three times per week during the treatment. The entire study was terminated on D20.
(§1) Statistical significance, calculated using 2 way ANOVA multiple comparisons in which each treatment group was compared to vehicle control, is indicated by an asterisk. Statistics were performed on groups with less than 20% animal loss (D20 for 4T1, D17 for LL/2). Survival benefit was determined for the LL/2 study (FIG. 4B). Individual mice were euthanized once they reached the termination endpoint (TV>2000 mm3). […]

A further experiment concerns LL/2 cells. The experiment is described as follows: Tumor growth and survival in LL/2 murine syngeneic model. The experiment is classed as in vivo, mouse (C57BL/6). The settings on record: LL/2 subcutaneous, female C57BL/6 mice, 500 mg/kg PO BID, study terminated on D21.
Description: For the LL/2 study (FIGS. 4A-4C), female C57BL/6 mice were inoculated subcutaneously in the right flank with 5×10^5 LL/2 cells (ATCC, CRL-1642™) for tumor development. Five days after tumor inoculation, 16 mice with tumor size ranging from 37-72 mm^3 (average tumor size 51 mm^3) were selected and assigned into 2 groups using stratified randomization with 8 mice in each group based upon their tumor volumes. The treatments were started from the next day post randomization (defined as randomization day DO) and were treated with vehicle (0.5% methylcellulose+0.2% Tween 80), or the compound of Example 235 (500 mg/kg PO BID*21 days). The tumor sizes were measured three times per week during the treatment. The entire study was terminated on D21.
as §1, with “mm3). The time from treatment initiation to termination was deemed as its survival time and plotted in a Kaplan-Meier survival curve format. Mice remaining at study end date of 21 days were euthanized at day 21 after treatment initiation.” for “mm3).”

Structures can show the parent of a compound that is named as a salt. A value given as a limit tells only on which side of the number the result lay.

Sequence of catalytic domain of human PARP14 (Q460N5 1611-1801): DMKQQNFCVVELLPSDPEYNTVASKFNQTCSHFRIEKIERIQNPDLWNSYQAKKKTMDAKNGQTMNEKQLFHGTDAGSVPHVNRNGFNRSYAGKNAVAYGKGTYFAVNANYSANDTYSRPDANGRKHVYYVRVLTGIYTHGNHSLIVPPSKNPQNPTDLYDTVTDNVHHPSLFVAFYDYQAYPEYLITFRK

In the case of `Cc1cccc2c(=O)[nH]c(CS[C@@H]3CCC[C@H](CN(C)C)C3)nc12` (relative stereo) [Example 72, 2-((((cis)-3-((Dimethylamino)methyl)cyclohexyl)thio)methyl)-8-methyl quinazolin-4(3H)-one Trifluoroacetate], the IC50 in experiment [1] was above 10 µM.

With `O=c1[nH]c(CS[C@H]2CC[C@H](O)CC2)nc2cc(OCC3CC3)cc(F)c12` [Example 235, 7-(Cyclopropylmethoxy)-5-fluoro-2-(((trans-4-hydroxycyclohexyl)thio)methyl)quinazolin-4(3H)-one], the “Tumor growth inhibition versus vehicle group” value with 4T1 cells is 31%; with LL/2 cells, 63%.

On to `O=c1[nH]c(CSC2CCOCC2)nc2cc(N[C@H]3CCC[C@@H]3F)cc(F)c12` (racemic) [Example 305], for which the IC50 in experiment [1] is below 1 µM.
